For one series, the system named is Anas platyrhynchos. Particulars: oral, mortality.
For another series, the system named is Apis mellifera. The following applies: acute; duration: 24 hours; oral; unspecified; mortality.
For a further series, the system named is Colinus virginianus. The following applies: acute, oral, mortality.
A further series concerns Cyprinus carpio. The following applies: acute; duration: 96 hours; mortality.
A further series has as its system Daphnia magna. Particulars: chronic/long-term; duration: 21 days; mortality.
In another series the test system is Mus musculus. The following applies: acute; oral; mortality.
A further series relates to Neomysis kadiakensis. Particulars: chronic/long-term; duration: 28 days; reproduction.
The subject of another series is Pimephales promelas. The following applies: chronic/long-term; duration: 32 days; growth.
For another series, the system named is Tagia sp. Particulars: acute; duration: 14 days; mortality.
In another series the test system is Aphidius rhopalosiphi. Description: LR50; higher = less toxic. The following applies: acute; duration: 48 hours; mortality.
A further series deals with Typhlodromus pyri. Description: LR50; higher = less toxic. Particulars: acute; duration: 48 hours; mortality.

≈ marks a conversion by molar mass, not a printed value.

The values that follow come from EPA's ToxValDB 9.5 (doi:10.2903/j.efsa.2012.2945).

As a reminder, the NOAEL is the highest tested level that showed no adverse finding. `O=c1ccc(C(F)(F)F)c[nH]1` [5-(Trifluoromethyl)pyridin-2(1H)-one] registered an NOAEL in the series on Rattus norvegicus (developmental, development) of 60 mg/kg-day.

`CCCCOC(=O)[C@@H](C)Oc1ccc(Oc2ccc(C(F)(F)F)cn2)cc1` [Fluazifop-P-butyl]: the LD50 in the series with Anas platyrhynchos (acute, unspecified) is more than 3960 mg/kg-day; in the series with Apis mellifera, more than 200 µg/piece; in the series with Colinus virginianus it was more than 2000 mg/kg-day; in the series with Mus musculus it was more than 2000 mg/kg-day. In addition, the LC50 with Anas platyrhynchos (short-term, feed) is more than 942 mg/kg-day; in the series on Colinus virginianus (diet) it was more than 1070 mg/kg-day; in the series on Cyprinus carpio, 1.31 µg/mL (≈ 3.42 µM); in the series on Tagia sp., more than 1000 mg/kg. Moreover, the figures for the NOEC with Daphnia magna, in the series on Neomysis kadiakensis and with Pimephales promelas were 0.25 mg/L, 0.0477 mg/L and 0.077 mg/L, respectively. Further, the NOAEL in the series with Rattus norvegicus (chronic, duration: 2 years) was 1 mg/kg-day; in the series with Rattus norvegicus (developmental, development), 2 mg/kg-day; in the series on Rattus norvegicus (reproduction developmental, reproduction), 6.72 mg/kg-day; with Rattus norvegicus (subchronic, duration: 90 days, oral) it was 0.9 mg/kg-day. In addition, the LR50 with Aphidius rhopalosiphi was found to be 177 g/ha; with Typhlodromus pyri it was 5.6 g/ha.

`CC(Oc1ccc(Oc2ccc(C(F)(F)F)cn2)cc1)C(=O)O` (centres undefined) [Fluazifop] showed a no-observed-adverse-effect level (NOAEL) with Rattus norvegicus (chronic, duration: 2 years) of 1 mg/kg-day.
